Values quoted from earlier work in US6627208B2, “Biocidal material with improved activity” (Eastman Kodak Company, priority 1999, dated 2003).
Values after ≈ are worked out from the molar mass of the structure shown.

Settings: limit of solubility

- solubility in water: 5 µg/mL (≈ 17.7 µM)
Compound: CCCCCCCCn1sc(Cl)c(Cl)c1=O [Kathon 287T®]
